# Source: ChEMBL document CHEMBL3046161, “Synthesis of potential antitubercular and antimicrobial s-triazine-based scaffolds via Suzuki cross-coupling reaction” (2013)
# Legend:
# Assay type in all cases: functional
# Salmonella typhi [1] = assay: Antibacterial activity against Salmonella enterica subsp. enterica serovar Typhi MTCC 733 assessed as growth inhibition at 3.12 to 50 ug/mL after 24 hr by agar disk diffusion method
# Klebsiella pneumoniae [2] = assay: Antibacterial activity against Klebsiella pneumoniae MTCC 109 assessed as growth inhibition at 3.12 to 50 ug/mL after 24 hr by agar disk diffusion method
# Klebsiella pneumoniae [3] = assay: Antibacterial activity against Klebsiella pneumoniae MTCC 109 assessed as growth inhibition after 24 hr by agar streak dilution method; details: MTCC 109, 24 h
# Salmonella typhi [4] = assay: Antibacterial activity against Salmonella enterica subsp. enterica serovar Typhi MTCC 733 assessed as growth inhibition after 24 hr by agar streak dilution method; details: MTCC 733, 24 h
# Pseudomonas aeruginosa [5] = assay: Antibacterial activity against Pseudomonas aeruginosa MTCC 741 assessed as growth inhibition after 24 hr by agar streak dilution method; details: MTCC 741, 24 h
# Escherichia coli [6] = assay: Antibacterial activity against Escherichia coli MTCC 739 assessed as growth inhibition after 24 hr by agar streak dilution method; details: MTCC 739, 24 h
# Bacillus cereus [7] = assay: Antibacterial activity against Bacillus cereus MTCC 430 assessed as growth inhibition after 24 hr by agar streak dilution method; details: MTCC 430, 24 h
# Staphylococcus aureus [8] = assay: Antibacterial activity against Staphylococcus aureus MTCC 96 assessed as growth inhibition after 24 hr by agar streak dilution method; details: MTCC 96, 24 h
# [9] = system: Mycobacterium tuberculosis; assay: Antimycobacterial activity against Mycobacterium tuberculosis H37Rv assessed as growth inhibition at MIC after 12 to 28 days by Lowenstein and Jensen agar dilution method
# [10] = system: Mycobacterium tuberculosis; assay: Antimycobacterial activity against Mycobacterium tuberculosis H37Rv assessed as growth inhibition after 12 to 28 days by Lowenstein and Jensen agar dilution method
# [11] = system: Mycobacterium tuberculosis; assay: Antimycobacterial activity against Mycobacterium tuberculosis H37Rv assessed as growth inhibition at MIC measured within 10 days by BACTEC MGIT method
# [12] = system: Mycobacterium tuberculosis; assay: Antimycobacterial activity against Mycobacterium tuberculosis H37Rv assessed as growth inhibition measured within 10 days by BACTEC MGIT method; details: 240 h
# Candida albicans [13] = assay: Antifungal activity against Candida albicans MTCC 183 assessed as growth inhibition at 3.12 to 50 ug/mL after 24 hr by agar disk diffusion method
# Aspergillus clavatus [14] = assay: Antifungal activity against Aspergillus clavatus MTCC 1323 assessed as growth inhibition at 3.12 to 50 ug/mL after 24 hr by agar disk diffusion method
# Aspergillus fumigatus [15] = assay: Antifungal activity against Aspergillus fumigatus MTCC 343 assessed as growth inhibition at 3.12 to 50 ug/mL after 24 hr by agar disk diffusion method
# Aspergillus niger [16] = assay: Antifungal activity against Aspergillus niger MTCC 282 assessed as growth inhibition at 3.12 to 50 ug/mL after 24 hr by agar disk diffusion method
# Candida albicans [17] = assay: Antifungal activity against Candida albicans MTCC 183 assessed as growth inhibition after 48 hr by agar streak dilution method; details: MTCC 183, 48 h
# Aspergillus clavatus [18] = assay: Antifungal activity against Aspergillus clavatus MTCC 1323 assessed as growth inhibition after 48 hr by agar streak dilution method; details: MTCC 1323, 48 h
# Aspergillus fumigatus [19] = assay: Antifungal activity against Aspergillus fumigatus MTCC 343 assessed as growth inhibition after 48 hr by agar streak dilution method; details: MTCC 343, 48 h
# Aspergillus niger [20] = assay: Antifungal activity against Aspergillus niger MTCC 282 assessed as growth inhibition after 48 hr by agar streak dilution method; details: MTCC 282, 48 h
# Shigella flexneri [21] = assay: Antibacterial activity against Shigella flexneri MTCC 1457 assessed as growth inhibition at 3.12 to 50 ug/mL after 24 hr by agar disk diffusion method
# Proteus vulgaris [22] = assay: Antibacterial activity against Proteus vulgaris MTCC 1771 assessed as growth inhibition at 3.12 to 50 ug/mL after 24 hr by agar disk diffusion method
# Pseudomonas aeruginosa [23] = assay: Antibacterial activity against Pseudomonas aeruginosa MTCC 741 assessed as growth inhibition at 3.12 to 50 ug/mL after 24 hr by agar disk diffusion method
# Escherichia coli [24] = assay: Antibacterial activity against Escherichia coli MTCC 739 assessed as growth inhibition at 3.12 to 50 ug/mL after 24 hr by agar disk diffusion method
# Bacillus cereus [25] = assay: Antibacterial activity against Bacillus cereus MTCC 430 assessed as growth inhibition at 3.12 to 50 ug/mL after 24 hr by agar disk diffusion method
# Staphylococcus aureus [26] = assay: Antibacterial activity against Staphylococcus aureus MTCC 96 assessed as growth inhibition at 3.12 to 50 ug/mL after 24 hr by agar disk diffusion method
# Shigella flexneri [27] = assay: Antibacterial activity against Shigella flexneri MTCC 1457 assessed as growth inhibition after 24 hr by agar streak dilution method; details: MTCC 1457, 24 h
# Proteus vulgaris [28] = assay: Antibacterial activity against Proteus vulgaris MTCC 1771 assessed as growth inhibition after 24 hr by agar streak dilution method; details: MTCC 1771, 24 h
# Candida albicans [29] = assay: Antifungal activity against Candida albicans MTCC 183 assessed as growth inhibition at 100 ug/disk after 24 hr by agar disk diffusion method; details: MTCC 183, 24 h, read-out: IZ
# Aspergillus clavatus [30] = assay: Antifungal activity against Aspergillus clavatus MTCC 1323 assessed as growth inhibition at 100 ug/disk after 24 hr by agar disk diffusion method; details: MTCC 1323, 24 h, read-out: IZ
# Aspergillus fumigatus [31] = assay: Antifungal activity against Aspergillus fumigatus MTCC 343 assessed as growth inhibition at 100 ug/disk after 24 hr by agar disk diffusion method; details: MTCC 343, 24 h, read-out: IZ
# Aspergillus niger [32] = assay: Antifungal activity against Aspergillus niger MTCC 282 assessed as growth inhibition at 100 ug/disk after 24 hr by agar disk diffusion method; details: MTCC 282, 24 h, read-out: IZ
compound,measurement,setting,value
COc1ccc(NC(=O)CNc2ccc(-c3nc(N4CC(C)CC(C)C4)nc(N4CC(C)CC(C)C4)n3)cc2)cc1 (centres undefined),inhibition zone (IZ),Salmonella typhi [1],20 mm
same,inhibition zone (IZ),Klebsiella pneumoniae [2],<10 mm
same,MIC,Klebsiella pneumoniae [3],50 µg/mL
same,MIC,Salmonella typhi [4],25 µg/mL
same,MIC,Pseudomonas aeruginosa [5],50 µg/mL
same,MIC,Escherichia coli [6],50 µg/mL
same,MIC,Bacillus cereus [7],25 µg/mL
same,MIC,Staphylococcus aureus [8],50 µg/mL
same,growth inhibition (GI),[9],99%
same,MIC,[10],6.25 µg/mL
same,growth inhibition (GI),[11],99%
same,MIC,[12],6.25 µg/mL
same,inhibition zone (IZ),Candida albicans [13],21 mm
same,inhibition zone (IZ),Aspergillus clavatus [14],<10 mm
same,inhibition zone (IZ),Aspergillus fumigatus [15],<10 mm
same,inhibition zone (IZ),Aspergillus niger [16],14 mm
same,MIC,Candida albicans [17],25 µg/mL
same,MIC,Aspergillus clavatus [18],> 50 µg/mL
same,MIC,Aspergillus fumigatus [19],> 50 µg/mL
same,MIC,Aspergillus niger [20],50 µg/mL
same,inhibition zone (IZ),Shigella flexneri [21],19 mm
same,inhibition zone (IZ),Proteus vulgaris [22],22 mm
same,inhibition zone (IZ),Pseudomonas aeruginosa [23],22 mm
same,inhibition zone (IZ),Escherichia coli [24],19 mm
same,inhibition zone (IZ),Bacillus cereus [25],23 mm
same,inhibition zone (IZ),Staphylococcus aureus [26],16 mm
same,MIC,Shigella flexneri [27],50 µg/mL
same,MIC,Proteus vulgaris [28],25 µg/mL
CC[C@@H](CO)NCCN[C@@H](CC)CO [ETHAMBUTOL],growth inhibition (GI),[11],99%
same,MIC,[12],3.12 µg/mL
NNC(=O)c1ccncc1 [ISONIAZID],growth inhibition (GI),[11],99%
same,MIC,[12],0.2 µg/mL
CC(=O)N1CCN(c2ccc(OCC3COC(Cn4ccnc4)(c4ccc(Cl)cc4Cl)O3)cc2)CC1 (centres undefined) [KETOCONAZOLE],zone of inhibition at 100 µg/disc,Candida albicans [29],33 mm
same,zone of inhibition at 100 µg/disc,Aspergillus clavatus [30],31 mm
same,zone of inhibition at 100 µg/disc,Aspergillus fumigatus [31],29 mm
same,zone of inhibition at 100 µg/disc,Aspergillus niger [32],30 mm
same,MIC,Candida albicans [17],1.56 µg/mL
same,MIC,Aspergillus clavatus [18],0.78 µg/mL
same,MIC,Aspergillus fumigatus [19],0.78 µg/mL
same,MIC,Aspergillus niger [20],1.56 µg/mL
NC(=O)c1cnccn1 [PYRAZINAMIDE],growth inhibition (GI),[11],99%
same,MIC,[12],6.25 µg/mL
CO[C@H]1/C=C/O[C@@]2(C)Oc3c(C)c(O)c4c(O)c(c(/C=N/N5CCN(C)CC5)c(O)c4c3C2=O)NC(=O)/C(C)=C\C=C\[C@H](C)[C@H](O)[C@@H](C)[C@@H](O)[C@@H](C)[C@H](OC(C)=O)[C@@H]1C [RIFAMPIN],growth inhibition (GI),[11],99%
same,MIC,[12],0.25 µg/mL
